Data set [1] deals with NET. The following applies: cited from earlier work; for ORR: phase 3 trial.
The target of data set [2] is T1, Fms kinase (Homo sapiens, UniProt P07333).
T1 construct: purchased Eurofins Pharma Discovery Services UK Ltd
Nature of the data set: CSF1R inhibition, [γ-33P-ATP] incorporation assay (Eurofins). Type of data set: biochemical. The procedure: Inhibition of compound A on Fins was determined using […] incorporation assay carried by Eurofins Pharma Discovery Services UK Ltd. Fms kinase was incubated with 8 mM MOPS (3-(N-Morpholino)propanesulfonic acid sodium) pH 7.0, 0.2 mM EDTA ((Ethylenedinitrilo)tetraacetic acid disodium salt), 250 μM […] (a peptide), 10 mM MgAcetate and [γ-33P-ATP] (specific activity approx. 500 cpm/pmol, concentration as required). The reaction was initiated by the addition of the MgATP mix. After incubation for 40 minutes at room temperature, the reaction was stopped by the addition of 3% phosphoric acid solution. 10 μL of the reaction was then spotted onto a P30 filtermat and washed three times for 5 minutes in 75 mM phosphoric acid and once in methanol prior to drying and scintillation counting.

Data set [3] can be described thus: Phase 1 clinical study: toxicity, DLT and MTD assessments. The note with it: doses of 50-350 mg QD and 125-150 mg BID; up to 350 mg QD (formulation 2). Format: in vivo, human. The procedure:
During the dose-escalation phase, patients were given a single dose of compound A and monitored for adverse events (AEs) for 7 days. If no clinically significant toxicities were observed, patients could enter the 28-day dose-limiting toxicity (DLT) observation phase where they received compound A continuously for 28 days. DLTs were assessed at the end of the 28-day period. If no patients experienced a DLT during the 28-day period, the dose was escalated (FIG. 1). After the completion of the DLT observation phase, patients could continue compound A treatment at their current dose (if they were judged by the investigator to be benefiting from the treatment) until any of the withdrawal criteria (investigator's decision that withdrawal was in the patient's best interest, intolerable toxicity, disease progression) were met.
The study used a modified Fibonacci 3+3 dose-escalation design with at least three evaluable patients treated with each dose. In total, 12 dose cohorts were assessed (FIG. 1). […] If […] patients experienced a DLT, the MTD was considered exceeded and the previous lower dose would be re-assessed to determine the MTD. […]
Safety and tolerability were assessed in all patients who received at least one dose of study medication throughout the study. AEs were recorded throughout the study. […]

Data set [4] concerns the target VEGFR 3 (Homo sapiens, UniProt P35916). The data set is described as follows: Compound A kinase selectivity profile. Format: biochemical.
The target of data set [5] is 278 other kinases. The data set is described as follows: Compound A kinase selectivity profile. Format: biochemical.
Data set [6] addresses VEGFR 1 (Homo sapiens, UniProt P17948). The data set is described as follows: Compound A kinase selectivity profile. Type of data set: biochemical.
Data set [7] deals with TrkB (Homo sapiens, UniProt Q16620). The data set is described as follows: Compound A kinase selectivity profile. Format: biochemical.
Data set [8] deals with CSF1R (Homo sapiens, UniProt P07333). Nature of the data set: Compound A kinase selectivity profile. Type of data set: biochemical.
Data set [9] concerns advanced solid tumors. Nature of the data set: Phase 1 clinical study: tumor response (RECIST Version 1.0). Format: in vivo, human. The note with it: total 77 patients. The protocol: Patients with neuroendocrine tumors (NETs) were enrolled with priority as preliminary efficacy was shown in these tumor types in the dose-escalation stage.
Tumor response (an exploratory endpoint) was assessed according to Response Evaluation Criteria in Solid Tumors (RECIST) Version 1.0 and measured at baseline, and at the end of every treatment cycle in the first 4 cycles and every other cycle thereafter. Patients with an initial assessment of complete response (CR) or partial response (PR) had to have the result confirmed by a repeat tumor assessment at least 4 weeks later. Calculations of the following parameters were made: objective response rate (ORR) (CR+PR); stable disease (SD) defined as ≥1 assessment of SD at least 6 weeks after study entry; disease control rate (DCR) (CR+PR+SD). Time to response (TTR), duration of response (DoR), and progression-free survival (PFS) were assessed in the subgroup of patients with NET.

In data set [10] the target is FGFR1 (Homo sapiens, UniProt P11362). Nature of the data set: Compound A kinase selectivity profile. Type of data set: biochemical.
The target of data set [11] is VEGFR 2 (Homo sapiens, UniProt P35968). The data set is described as follows: Compound A kinase selectivity profile. Format: biochemical.
Data set [12] addresses T2, FLT3 (Homo sapiens, UniProt P36888).
T2 sequence (P36888 27-993): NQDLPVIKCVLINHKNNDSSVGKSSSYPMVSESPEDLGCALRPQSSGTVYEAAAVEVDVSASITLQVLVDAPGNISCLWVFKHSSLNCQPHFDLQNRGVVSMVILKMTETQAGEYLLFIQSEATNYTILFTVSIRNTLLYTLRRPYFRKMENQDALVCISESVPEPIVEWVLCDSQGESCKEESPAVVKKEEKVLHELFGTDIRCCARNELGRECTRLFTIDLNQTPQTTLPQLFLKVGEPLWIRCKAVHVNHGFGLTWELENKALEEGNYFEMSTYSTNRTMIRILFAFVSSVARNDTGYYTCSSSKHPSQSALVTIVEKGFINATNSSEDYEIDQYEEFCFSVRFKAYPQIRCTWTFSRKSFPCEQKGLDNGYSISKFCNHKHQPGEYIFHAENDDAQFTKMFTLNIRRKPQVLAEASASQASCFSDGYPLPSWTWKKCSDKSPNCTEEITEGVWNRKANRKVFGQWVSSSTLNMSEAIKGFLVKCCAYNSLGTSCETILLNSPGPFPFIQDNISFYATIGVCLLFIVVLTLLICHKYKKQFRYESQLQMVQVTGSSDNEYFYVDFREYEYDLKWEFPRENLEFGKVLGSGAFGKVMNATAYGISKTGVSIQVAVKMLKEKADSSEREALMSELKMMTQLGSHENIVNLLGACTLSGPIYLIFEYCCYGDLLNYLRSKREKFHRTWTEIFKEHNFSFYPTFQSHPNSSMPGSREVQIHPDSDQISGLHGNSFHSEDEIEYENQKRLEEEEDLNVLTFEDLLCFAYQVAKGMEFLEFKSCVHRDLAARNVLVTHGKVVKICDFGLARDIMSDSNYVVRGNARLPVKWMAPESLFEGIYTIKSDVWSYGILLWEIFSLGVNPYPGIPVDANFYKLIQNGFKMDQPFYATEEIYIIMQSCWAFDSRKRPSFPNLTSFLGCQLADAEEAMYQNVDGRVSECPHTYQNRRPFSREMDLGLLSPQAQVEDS
The data set is described as follows: Compound A kinase selectivity profile. Type of data set: biochemical.

Like-named read-outs stand apart in the source and are kept apart here.

T1 sequence (P07333 20-972): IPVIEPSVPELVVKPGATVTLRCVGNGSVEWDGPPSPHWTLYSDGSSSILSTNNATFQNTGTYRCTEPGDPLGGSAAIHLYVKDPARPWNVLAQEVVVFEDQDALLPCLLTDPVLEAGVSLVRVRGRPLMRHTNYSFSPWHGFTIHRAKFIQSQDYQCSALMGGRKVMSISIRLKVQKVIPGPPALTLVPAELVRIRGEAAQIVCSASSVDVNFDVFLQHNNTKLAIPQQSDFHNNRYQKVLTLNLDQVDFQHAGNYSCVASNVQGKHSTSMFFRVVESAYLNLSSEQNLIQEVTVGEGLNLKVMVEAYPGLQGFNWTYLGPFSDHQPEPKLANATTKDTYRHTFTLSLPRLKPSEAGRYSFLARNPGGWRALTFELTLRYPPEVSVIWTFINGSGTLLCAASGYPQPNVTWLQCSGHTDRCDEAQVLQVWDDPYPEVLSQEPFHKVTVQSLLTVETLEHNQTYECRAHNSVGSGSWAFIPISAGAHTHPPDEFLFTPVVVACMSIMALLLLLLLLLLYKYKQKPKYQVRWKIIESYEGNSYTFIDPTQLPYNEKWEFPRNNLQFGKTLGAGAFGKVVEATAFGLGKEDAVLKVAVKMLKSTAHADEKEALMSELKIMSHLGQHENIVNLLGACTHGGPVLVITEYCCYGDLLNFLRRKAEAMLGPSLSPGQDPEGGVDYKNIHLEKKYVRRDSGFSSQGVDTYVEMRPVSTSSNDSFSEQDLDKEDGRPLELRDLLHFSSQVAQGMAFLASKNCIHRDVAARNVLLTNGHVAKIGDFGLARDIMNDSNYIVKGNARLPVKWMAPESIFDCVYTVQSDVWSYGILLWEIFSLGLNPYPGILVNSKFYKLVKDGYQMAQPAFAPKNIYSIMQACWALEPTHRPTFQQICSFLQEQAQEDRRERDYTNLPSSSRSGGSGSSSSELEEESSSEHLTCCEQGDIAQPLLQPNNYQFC
Chain of VEGFR 1 (P17948 27-1338): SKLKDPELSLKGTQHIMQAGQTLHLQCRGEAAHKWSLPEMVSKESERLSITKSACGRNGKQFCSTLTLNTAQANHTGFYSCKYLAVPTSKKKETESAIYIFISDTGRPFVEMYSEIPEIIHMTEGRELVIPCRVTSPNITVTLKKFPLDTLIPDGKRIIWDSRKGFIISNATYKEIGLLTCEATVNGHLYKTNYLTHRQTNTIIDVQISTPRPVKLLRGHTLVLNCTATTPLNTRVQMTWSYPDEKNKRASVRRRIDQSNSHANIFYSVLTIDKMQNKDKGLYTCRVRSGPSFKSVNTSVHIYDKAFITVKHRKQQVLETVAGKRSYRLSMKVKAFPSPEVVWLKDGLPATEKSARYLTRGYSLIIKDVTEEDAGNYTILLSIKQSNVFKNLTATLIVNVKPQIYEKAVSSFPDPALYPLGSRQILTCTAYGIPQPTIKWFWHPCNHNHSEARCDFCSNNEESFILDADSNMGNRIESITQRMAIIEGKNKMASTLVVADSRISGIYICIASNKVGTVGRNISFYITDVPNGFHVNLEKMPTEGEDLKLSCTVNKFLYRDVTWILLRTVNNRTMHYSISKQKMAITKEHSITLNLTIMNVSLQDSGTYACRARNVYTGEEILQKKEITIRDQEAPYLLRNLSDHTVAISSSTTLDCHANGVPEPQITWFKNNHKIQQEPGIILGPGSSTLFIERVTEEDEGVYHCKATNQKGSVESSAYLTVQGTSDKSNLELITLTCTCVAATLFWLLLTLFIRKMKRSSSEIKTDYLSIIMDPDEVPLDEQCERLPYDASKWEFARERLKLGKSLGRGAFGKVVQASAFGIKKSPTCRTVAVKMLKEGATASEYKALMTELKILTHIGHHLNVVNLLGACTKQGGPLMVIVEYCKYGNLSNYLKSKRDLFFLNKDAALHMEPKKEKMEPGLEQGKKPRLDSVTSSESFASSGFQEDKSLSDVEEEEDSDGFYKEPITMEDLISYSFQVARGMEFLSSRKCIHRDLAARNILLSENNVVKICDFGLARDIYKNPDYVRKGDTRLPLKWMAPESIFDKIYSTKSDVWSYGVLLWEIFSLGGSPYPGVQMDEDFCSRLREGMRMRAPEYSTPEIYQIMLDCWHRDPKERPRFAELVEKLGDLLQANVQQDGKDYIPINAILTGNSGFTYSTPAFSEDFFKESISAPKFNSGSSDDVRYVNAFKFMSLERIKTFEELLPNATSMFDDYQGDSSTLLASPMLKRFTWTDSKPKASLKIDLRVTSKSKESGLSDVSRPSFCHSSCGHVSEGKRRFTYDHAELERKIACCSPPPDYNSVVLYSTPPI
Chain of VEGFR 3 (P35916 25-1363): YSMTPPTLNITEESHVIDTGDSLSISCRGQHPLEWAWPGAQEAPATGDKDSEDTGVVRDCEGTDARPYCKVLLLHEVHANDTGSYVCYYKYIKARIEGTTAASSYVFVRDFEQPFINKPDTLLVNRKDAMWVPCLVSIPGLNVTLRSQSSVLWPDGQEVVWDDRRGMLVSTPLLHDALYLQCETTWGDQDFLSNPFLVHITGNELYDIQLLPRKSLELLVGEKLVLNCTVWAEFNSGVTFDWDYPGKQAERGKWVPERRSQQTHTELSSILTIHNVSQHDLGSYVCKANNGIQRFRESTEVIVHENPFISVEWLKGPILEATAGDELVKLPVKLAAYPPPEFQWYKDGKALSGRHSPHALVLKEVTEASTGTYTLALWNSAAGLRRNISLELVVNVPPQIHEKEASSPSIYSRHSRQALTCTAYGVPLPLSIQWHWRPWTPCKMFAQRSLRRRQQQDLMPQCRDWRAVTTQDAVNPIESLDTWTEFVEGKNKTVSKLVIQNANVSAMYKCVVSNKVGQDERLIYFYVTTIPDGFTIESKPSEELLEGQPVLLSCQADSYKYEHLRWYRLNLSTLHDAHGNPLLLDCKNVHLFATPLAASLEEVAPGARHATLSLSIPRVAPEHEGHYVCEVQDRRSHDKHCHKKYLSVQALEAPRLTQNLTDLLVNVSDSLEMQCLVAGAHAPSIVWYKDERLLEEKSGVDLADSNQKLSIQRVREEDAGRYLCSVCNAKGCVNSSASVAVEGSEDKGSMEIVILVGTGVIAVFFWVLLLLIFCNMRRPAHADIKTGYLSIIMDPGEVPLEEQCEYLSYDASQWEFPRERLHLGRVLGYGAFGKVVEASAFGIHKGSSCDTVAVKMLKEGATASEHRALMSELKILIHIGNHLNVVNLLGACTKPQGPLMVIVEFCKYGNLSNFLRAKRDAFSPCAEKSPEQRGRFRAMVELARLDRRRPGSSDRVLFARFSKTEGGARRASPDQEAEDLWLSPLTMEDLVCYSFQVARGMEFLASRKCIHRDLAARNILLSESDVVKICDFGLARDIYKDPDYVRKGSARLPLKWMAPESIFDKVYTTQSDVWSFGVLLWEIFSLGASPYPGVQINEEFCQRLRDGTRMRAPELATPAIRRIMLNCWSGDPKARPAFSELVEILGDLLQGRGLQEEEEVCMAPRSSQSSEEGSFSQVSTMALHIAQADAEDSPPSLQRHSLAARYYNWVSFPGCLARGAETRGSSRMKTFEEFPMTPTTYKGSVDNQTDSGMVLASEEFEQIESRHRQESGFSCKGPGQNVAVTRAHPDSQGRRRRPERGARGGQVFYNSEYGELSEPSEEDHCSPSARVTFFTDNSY
Chain of TrkB (Q16620 32-822): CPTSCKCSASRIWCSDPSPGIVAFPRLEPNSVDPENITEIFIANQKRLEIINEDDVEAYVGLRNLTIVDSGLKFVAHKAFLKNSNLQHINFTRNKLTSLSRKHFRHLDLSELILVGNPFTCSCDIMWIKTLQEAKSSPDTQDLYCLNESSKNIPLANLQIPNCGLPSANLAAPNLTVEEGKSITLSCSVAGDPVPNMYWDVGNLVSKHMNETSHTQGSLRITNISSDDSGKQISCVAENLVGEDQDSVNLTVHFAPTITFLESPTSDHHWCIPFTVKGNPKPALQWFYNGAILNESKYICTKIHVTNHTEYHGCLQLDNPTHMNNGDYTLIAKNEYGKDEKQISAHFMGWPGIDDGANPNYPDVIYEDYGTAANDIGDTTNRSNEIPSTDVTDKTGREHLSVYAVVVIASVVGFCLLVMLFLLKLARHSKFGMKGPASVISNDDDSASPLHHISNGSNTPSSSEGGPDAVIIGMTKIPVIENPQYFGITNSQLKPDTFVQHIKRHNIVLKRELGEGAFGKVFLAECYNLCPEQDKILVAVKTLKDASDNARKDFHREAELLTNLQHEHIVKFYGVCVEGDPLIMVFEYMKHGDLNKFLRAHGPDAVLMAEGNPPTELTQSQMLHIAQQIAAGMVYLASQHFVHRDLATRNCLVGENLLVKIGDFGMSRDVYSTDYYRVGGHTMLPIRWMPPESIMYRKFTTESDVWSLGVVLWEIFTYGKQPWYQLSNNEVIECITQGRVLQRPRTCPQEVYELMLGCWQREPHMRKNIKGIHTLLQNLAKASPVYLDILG
Chain of CSF1R (P07333 20-972): as the sequence (P07333 20-972) above

Consider `CO[C@H]1C[C@@H]2CC[C@@H](C)[C@@](O)(O2)C(=O)C(=O)N2CCCC[C@H]2C(=O)O[C@H]([C@H](C)C[C@@H]2CC[C@@H](OCCO)[C@H](OC)C2)CC(=O)[C@H](C)/C=C(\C)[C@@H](O)[C@@H](OC)C(=O)[C@H](C)C[C@H](C)/C=C/C=C/C=C/1C` [everolimus], for which the ORR in [1] (GI and lung NET) was 2%; in [1] (pancreatic NET), 5%. Also, the “median PFS” value in data set [1] (phase 3 trials) is “approximately 11 months”.
`Cc1cc2cc(Oc3ccnc(Nc4cccc(CS(=O)(=O)NCCN(C)C)c4)n3)ccc2[nH]1` [Compound A, N-(2-(dimethylamino)ethyl)-1-(3-((4-((2-methyl-1H-indol-5-yl)oxy)pyrimidin-2-yl)amino)phenyl)-methanesulfonamide]: the “IH (%)” value in data set [2] (0.0001 μM) is −3%; in data set [2] (0.0003 μM), 3%; in [2] (0.001 μM) it was 15%; in [2] (0.003 μM), 38%; in data set [2] (0.01 μM) it was 72%; in data set [2] (0.03 μM) it was 86%. Also, the “IH (%)” value in data set [2] (0.1 μM) was 94%; in data set [2] (0.3 μM), 98%; in data set [2] (1 μM), 98%. The “MTD (maximum tolerated dose)” value in data set [3] is “not reached”. Further, the IC50 in data set [4] is 1 nM; in data set [5], more than 150 nM; in data set [6], 2 nM; in data set [7] it was 41 nM; in data set [8] it was 4 nM; in [10] it was 15 nM. The IC50 in data set [11] was 24 nM; in [12], 67 nM. The “patients with confirmed PR” value in data set [9] was “nine”.
